US20260144805A1, “CANNABIDIOL COMPOSITIONS FOR USE IN THE TREATMENT OF NEURODEGENERATIVE AND NEUROLOGICAL DISORDERS” (JAZZ PHARMACEUTICALS RESEARCH UK LIMITED, priority 2022, published 2026)

Tests used:
rTg4510 mice = assay: Open Field (OF) test, locomotor activity in rTg4510 mouse model of Alzheimer's Disease (Example 2; DS = DS-C); assay type: in vivo; conditions: for Locomotor activity totals, Mean / Locomotor activity totals, % vs Wild-type / Locomotor activity totals, % vs rTg4510: Doxycycline 200 ppm diet
Method: The aim of this study was to evaluate the efficacy of the present drug substance to modulate the agitation-like behaviours in the rTg4510 regulatable mouse model of Alzheimer's Disease (AD). Animals were tested in a behavioural assay, the Open Field (OF) test to measure locomotor activity (LMA). Activity was first assessed at a 21-week-old baseline to determine whether a hyperactive phenotype (to be used as a proxy for agitation) had developed and was further assessed at 2 subsequent ages in acute and chronic efficacy phases.
Ninety male rTg4510 (CC) mice and 15 wild-type (WW) (Tg(Camk2a-tTA)1Mmay Fgf14^Tg(tetO-MAPT*P301L)4510Kha/J, Jax strain #024854, licensed from the Mayo Clinic, USA) were split into 2 cohorts, 4 weeks apart in age; cohort 1 contained 53 mice (8 WW and 45 CC) and cohort 2 contained 52 mice (7 WW and 45 CC). Relative humidity was 55±15% throughout. Mice were housed in individually ventilated cages on a 12 h/12 h light/dark cycle (lights on at 07.00 h; illumination by red light during the dark phase), at an ambient temperature of 24±4° C. with free access to standard rodent maintenance diet and filtered water. Animals were allowed to acclimatise to the above conditions for 7-10 days prior to the study start. All housing groupings were preserved until the mice were approximately 5 months old, at which point they were singly housed.
Doxycycline administration: a subset of animals in cohort 2 (n=15) was administered 2× daily oral bolus doses of doxycycline hyclate (10 mg/kg p.o. in 5% glucose, Sigma Aldrich) at 13 weeks of age, followed by continuous exposure to normal lab chow containing 200 ppm doxycycline (Envigo Teklad 2018 TD.00502 no colourants, irradiated and vacuum-packed). All other animals received Envigo Teklad 2018 diet. All diet was provided ad libitum.
Following this regime, animals were evaluated in Open Field (OF) test, before being deeply anaesthetised at the end of the behavioural testing prior to biofluid sampling and tissue harvesting.
Specifically, the material was solubilised by the addition of 50 μL of 10% glacial acetic acid and making up to volume with 0.9% saline (Aquapharm, Animal Care, York, UK, Lot 21030311).
Drug Substance (DS): (i.e., DS-C, See Table B in Example 1) Dosing volume was 10 mL/kg and DS was formulated at the 150 mg/kg dose in a vehicle of ethanol: Kolliphor HS15: 0.9% saline (1:12:87, w/w/v) which were stored at room temperature and added at approximately 60° C. to form solutions which were subsequently stable at room temperature. All dosing formulations were protected from light whenever possible. Dosing solutions were made fresh on the day of dosing, with lower dose formulations being prepared by dilution from the 150 mg/kg dosing solution at room temperature.
Locomotor activity was assessed by OF test in the light phase of the light-dark cycle at weeks 21, 26 and 31. An automated beam break apparatus (40 cages) was used for the assessment of locomotor activity in rats and mice. Each cage had 4 beams; 1 ‘y’ and 3 ‘x’ which triggered a signal through capacitors when the beam was broken. Signals were collected by data loggers and processed accordingly. All animals were placed in the apparatus and spontaneous activity was assessed for a four-hour period between 0900 and 1300. Animals were then removed from the apparatus and returned to their home cages. LMA assessment was split over 2 consecutive days at each time point.
For locomotor data, a log (x+1) transformation was used. For weeks 21 & 26, means and SEMs were calculated from the transformed data. Analysis was by Friedman's two-way nonparametric ANOVA with treatment and test day as factors to compare each group to the WW animals, and (where appropriate) Doxycycline with the untreated rTg4510 group. For week 30, data excluding the WW and Doxycycline groups for each time period were analysed by robust regression model using M estimation, Huber weighting, using the default parameter c=1.345. […]

[1] = Brain weight of rTg4510 mice (Example 2); assay type: in vivo, mouse; conditions: rTg4510 CC mice administered doxycycline; end of study
Method: Brain Tissue Collection: Mice were decapitated and the brains rapidly extracted. Brains were briefly washed in saline and blot dried then hemisected, weighed separately and frozen on dry ice before storage at approximately −80° C.
Brain weights were analysed by 2-way analysis of variance with treatment and cohort as factors.

[2] = Weekly body weight of rTg4510 mice (Example 2); assay type: in vivo, mouse; conditions: rTg4510 mice fed doxycycline; 15 weeks of age
Method: Weekly bodyweight: all animals were weighed weekly until the end of the study.
Weekly body weight data were analysed by mixed linear model with the cohort by week and group by week interactions as fixed effects, animal as the random subject, using an AR (1)+RE correlation structure. Comparisons to the WW and rTg4510 (vehicle) groups for the same week were by the multiple t test.

[3] = test system: harmaline model of Essential Tremor; assay: Harmaline model of Essential Tremor, subjective tremor score 0-4 (Example 3; DS = DS-D); assay type: in vivo, rat; conditions: Propranolol 40 mg/kg i.p.
Method: All experiments were carried out in male Sprague Dawley rats (˜250 g). Naïve rats were acclimatised to the procedure room in their home cages up to 7 days following arrival at the test facility, with food and water available ad libitum. All animals were weighed at the beginning of the study and assigned to treatment groups (Vehicle n=6, treatment groups n=12/group).
Animals were dosed and tested as per Table G below, across 3 test days. Treatment groups were equally allocated across the 3 days of testing. The animals received either vehicle, DS at 30, 100 or 150 mg/kg (1 mL/kg, i.p.) or propranolol at 40 mg/kg (5 mL/kg, i.p.) (Compound 1), the animals were then dosed with vehicle or Harmaline at 10 mg/kg (5 mL/kg, i.p.) (Compound 2). The animals received DS at 30, 100 or 150 mg/kg (1 mL/kg, i.p.) 40 or 100 min before harmaline, with the first test point 20 mins later to give a pre-treatment time at first test point of 60 and 120 mins. Propanolol was dosed 30 min before harmaline and tested 20, 40 and 60 mins post-harmaline. At all test points post-harmaline, the animals were observed and given a tremor score of 0-4 (as per Table H).
Drug substance (i.e., DS-D, as described in Example 1) was formulated in 1:12:87 Ethanol, Kolliphor HS & Saline.
Propranolol (40 mg/kg i.p.) served as a disease-relevant comparator.
30 mg/kg drug substance required 1 hr pre-treatment whilst 100 and 150 mg/kg drug substance required 2 hr pre-treatment.
Behavioural observation data was analysed using a repeated measures two-way ANOVA followed by Dunnett's multiple comparison analysis (GraphPad, Prism v9.0.0) (p<0.05 considered significant).

[4] = Week 31, 0-240 minute period, doxycycline-treated group

C[C@H]1c2cccc(O)c2C(=O)C2=C(O)[C@]3(O)C(=O)C(C(N)=O)=C(O)[C@@H](N(C)C)[C@@H]3[C@@H](O)[C@@H]21 [Doxycycline, doxycycline hyclate]
Locomotor activity totals, Mean (rTg4510 mice; Week 21, 0-30 minutes): 855.0 | Locomotor activity totals, Mean (rTg4510 mice; Week 21, 0-60 minutes): 1624.9 | Locomotor activity totals, Mean (rTg4510 mice; Week 21, 0-240 minutes): 3476.4 | Locomotor activity totals, Mean (rTg4510 mice; Week 21, 30-60 minutes): 749.9 | Locomotor activity totals, Mean (rTg4510 mice; Week 21, 60-90 minutes): 542.2 | Locomotor activity totals, Mean (rTg4510 mice; Week 21, 60-120 minutes): 880.1 | Locomotor activity totals, Mean (rTg4510 mice; Week 21, 90-120 minutes): 283.2 | Locomotor activity totals, Mean (rTg4510 mice; Week 21, 120-150 minutes): 227.4 | Locomotor activity totals, Mean (rTg4510 mice; Week 21, 120-180 minutes): 521.1 | Locomotor activity totals, Mean (rTg4510 mice; Week 21, 150-180 minutes): 181.8 | Locomotor activity totals, Mean (rTg4510 mice; Week 21, 180-210 minutes): 71.1 | Locomotor activity totals, Mean (rTg4510 mice; Week 21, 180-240 minutes): 212.8 | Locomotor activity totals, Mean (rTg4510 mice; Week 21, 210-240 minutes): 52.4 | Locomotor activity totals, Mean (rTg4510 mice; Week 26, 0-30 minutes): 903.7 | Locomotor activity totals, Mean (rTg4510 mice; Week 26, 0-60 minutes): 1606.6 | Locomotor activity totals, Mean (rTg4510 mice; Week 26, 0-240 minutes): 3435.5 | Locomotor activity totals, Mean (rTg4510 mice; Week 26, 30-60 minutes): 664.6 | Locomotor activity totals, Mean (rTg4510 mice; Week 26, 60-90 minutes): 489.8 | Locomotor activity totals, Mean (rTg4510 mice; Week 26, 60-120 minutes): 770.3 | Locomotor activity totals, Mean (rTg4510 mice; Week 26, 90-120 minutes): 186.7 | Locomotor activity totals, Mean (rTg4510 mice; Week 26, 120-150 minutes): 157.0 | Locomotor activity totals, Mean (rTg4510 mice; Week 26, 120-180 minutes): 459.9 | Locomotor activity totals, Mean (rTg4510 mice; Week 26, 150-180 minutes): 142.2 | Locomotor activity totals, Mean (rTg4510 mice; Week 26, 180-210 minutes): 185.3 | Locomotor activity totals, Mean (rTg4510 mice; Week 26, 180-240 minutes): 362.6 | Locomotor activity totals, Mean (rTg4510 mice; Week 26, 210-240 minutes): 41.3 | Locomotor activity totals, % vs Wild-type (rTg4510 mice; Week 31, 0-30 minutes): 143.2% | Locomotor activity totals, % vs rTg4510 (rTg4510 mice; Week 31, 0-30 minutes): 58.7% | Locomotor activity totals, Mean (rTg4510 mice; Week 31, 0-30 minutes): 744.04 | Locomotor activity totals, % vs Wild-type (rTg4510 mice; Week 31, 0-60 minutes): 144.7% | Locomotor activity totals, % vs rTg4510 (rTg4510 mice; Week 31, 0-60 minutes): 47.6% | Locomotor activity totals, Mean (rTg4510 mice; Week 31, 0-60 minutes): 1216.28 | activity as % of the activity seen in the WW animals (rTg4510 mice; [4]): 100.6% | activity as % of the activity seen in the rTg4510(vehicle) animals (rTg4510 mice; [4]): 26.2% | Locomotor activity totals, % vs Wild-type (rTg4510 mice; Week 31, 30-60 minutes): 141.7% | Locomotor activity totals, % vs rTg4510 (rTg4510 mice; Week 31, 30-60 minutes): 35.3% | Locomotor activity totals, Mean (rTg4510 mice; Week 31, 30-60 minutes): 445.74 | Locomotor activity totals, % vs Wild-type (rTg4510 mice; Week 31, 60-90 minutes): 153.3% | Locomotor activity totals, % vs rTg4510 (rTg4510 mice; Week 31, 60-90 minutes): 37.0% | Locomotor activity totals, Mean (rTg4510 mice; Week 31, 60-90 minutes): 231.53 | Locomotor activity totals, % vs Wild-type (rTg4510 mice; Week 31, 60-120 minutes): 176.8% | Locomotor activity totals, % vs rTg4510 (rTg4510 mice; Week 31, 60-120 minutes): 49.4% | Locomotor activity totals, Mean (rTg4510 mice; Week 31, 60-120 minutes): 477.89 | Locomotor activity totals, % vs Wild-type (rTg4510 mice; Week 31, 90-120 minutes): 324.4% | Locomotor activity totals, % vs rTg4510 (rTg4510 mice; Week 31, 90-120 minutes): 110.8% | Locomotor activity totals, Mean (rTg4510 mice; Week 31, 90-120 minutes): 165.38 | Locomotor activity totals, % vs Wild-type (rTg4510 mice; Week 31, 120-150 minutes): 134.8% | Locomotor activity totals, % vs rTg4510 (rTg4510 mice; Week 31, 120-150 minutes): 63.1% | Locomotor activity totals, Mean (rTg4510 mice; Week 31, 120-150 minutes): 105.17 | Locomotor activity totals, % vs Wild-type (rTg4510 mice; Week 31, 150-180 minutes): 135.0% | Locomotor activity totals, % vs rTg4510 (rTg4510 mice; Week 31, 150-180 minutes): 33.9% | Locomotor activity totals, Mean (rTg4510 mice; Week 31, 150-180 minutes): 28.13 | Locomotor activity totals, % vs Wild-type (rTg4510 mice; Week 31, 180-210 minutes): 8.9% | Locomotor activity totals, % vs rTg4510 (rTg4510 mice; Week 31, 180-210 minutes): 5.6% | Locomotor activity totals, Mean (rTg4510 mice; Week 31, 180-210 minutes): 1.72 | Locomotor activity totals, % vs Wild-type (rTg4510 mice; Week 31, 210-240 minutes): 90.8% | Locomotor activity totals, % vs rTg4510 (rTg4510 mice; Week 31, 210-240 minutes): 117.5% | Locomotor activity totals, Mean (rTg4510 mice; Week 31, 210-240 minutes): 16.18 | mean brain weight [1]: 408.8 ± 6.1 mg | body weight [2]: 29.14 ± 0.50 g

CC(C)NCC(O)COc1cccc2ccccc12 (stereo not shown) [Propranolol]
deficits induced by harmaline vs vehicle/harmaline group ([3]; 20, 40 and 60 min post-harmaline): significantly attenuated | Tremor Score (median ± IQR) ([3]; 20 mins post-harmaline): 0.0 ± 0.0 | Tremor Score (median ± IQR) ([3]; 40 mins post-harmaline): 0.0 ± 0.0 | Tremor Score (median ± IQR) ([3]; 60 mins post-harmaline): 0.0 ± 0.75
